Measurements taken from patent publication US20100288276A1, “COMPOSITIONS FOR TREATING PARKINSON'S DISEASE” (VECTURAL LIMITED, priority 2007, published 2010).
Structures can show the parent of a compound that is named as a salt. Where two headings read alike, the source gives them in different places.

How the values were obtained:
[1] = Solubility in pMDI propellant formulations; type: physicochemical; details: within ethanol-based HFA 134a pMDI formulations
Procedure: Previously a low dose (<25 μg/50 μl) HFA134a/HFA 227 solution formulation has been produced but only at high ethanol contents (50% w/w).

[2] = Pharmacokinetics after pulmonary inhalation of apomorphine; type: in vivo, patients; details: for AUC(0-t) / AUC(0-inf) / Cmax / Tmax: human, plasma, inhaled or intranasal; for AUC(0-t): read-out: AUC(0-t), Mean (SD) (converted); for AUC(0-inf): read-out: AUC(0-∞), Mean (SD) (converted); for Cmax: read-out: Cmax, Mean (SD)
[3] = system: Parkinson's Disease patients; test: Therapeutic effect (conversion from off to on state) after pulmonary inhalation, clinical trial; type: in vivo
[4] = Safety results: treatment emergent adverse events after inhaled apomorphine; type: in vivo, patients; details: Nominal Doses of 400 μg, 1000 μg and 1600 μg
Procedure: Safety results: Few patients experienced treatment emergent adverse events (TEAEs) and there were no notable differences in incidence or types of TEAEs among the treatment groups. […] Most common TEAEs at <24 h post dose were nervous system disorders.

[5] = Visual assessment of pMDI suspension formulations; type: physicochemical
Procedure: Nine formulations (see Table 1 and Table 2) were manufactured.
Reduction of the drug concentration (300 μg/50 μl) was investigated in Formulations 4-6 (see FIGS. 5-8).

[6] = nasal administration; cited from earlier work
[7] = system: Parkinson's Disease patients; details: injected under the skin; cited from earlier work
[8] = 1000 μg inhaled, N = 6, 30% apomorphine in 70% lactose blend

## CN1CCc2cccc3c2[C@H]1Cc1ccc(O)c(O)c1-3 [apomorphine hydrochloride]
[1]
  solubility: low solubility

## CN1CCc2cccc3c2[C@H]1Cc1ccc(O)c(O)c1-3 [Apomorphine, apomorphine]
[2]; 400 μg inhaled, N = 6, 20% apomorphine in 80% lactose blend
  k, Mean (SD): 0.01 (0.00)
[2]; 400 μg inhaled, N = 6, 20% apomorphine in 80% lactose blend, in min
  tmax, Mean (SD): 1.0 (0.0)
[2]; [8]
  AUC(0-∞), Mean (SD): 216.93 (99.30) ng · min/mL
  k, Mean (SD): 0.01 (0.00)
[2]; 1600 μg inhaled, N = 6, 30% apomorphine in 70% lactose blend
  k, Mean (SD): 0.02 (0.00)
[2]; 400 ug
  AUC(0-t): 0.792 ng·h/mL
  AUC(0-inf): 0.945 ng·h/mL
  Cmax: 3.03 ng/mL
[2]; 1000 ug, 1000 μg inhaled, N = 6, 30% apomorphine in 70% lactose blend, read-out: tmax, Mean (SD) (converted)
  Tmax: 2.6 min
[2]; 1000 ug
  AUC(0-t): 2.81 ng·h/mL
  Cmax: 10 ng/mL
[2]; 1600 ug, 1600 μg inhaled, N = 6, 30% apomorphine in 70% lactose blend, read-out: tmax, Mean (SD) (converted)
  Tmax: 2.2 min
[2]; 1600 ug
  AUC(0-t): 4.51 ng·h/mL
  AUC(0-inf): 5.03 ng·h/mL
  Cmax: 11.9 ng/mL
[2]; Tmax / time of peak apomorphine plasma concentration, pulmonary inhalation
  Tmax: 1 to 3 min
[2]; pulmonary inhalation, 400-1600 μg
  dose proportionality of AUC(0-t), AUC(0-∞) and Cmax: Dose proportionality was observed
[3]; clinical trial, pulmonary inhalation
  mean duration of the therapeutic effect: 75 min
[3]; majority of patients, after inhaling apomorphine
  onset of the therapeutic effect (conversion): ≤ 10 min
[3]; some patients, as quickly as, pulmonary inhalation
  conversion from the off to the on state: 2 min
[4]
  tolerability: well tolerated
[5]; 264 μg/50 μl suspension in HFA 227
  suspension behaviour (visual assessment): cream (float)
[5]; 300 μg/50 μl in pure HFA134a
  suspension behaviour (visual assessment): rapidly sediment
[5]; 600 μg/50 μl in pure HFA134a
  suspension behaviour (visual assessment): rapidly sedimented
[5]; density matched at approximately 60% w/w HFA 227 and 40% w/w HFA134a
  density: about 1.33 g/ml
[6]
  Tmax: approximately 15 minutes
[7]
  period for which the effect is maintained: about 60 minutes
  time to bring about an on time: 7 to 10 min
